system: circulating lymphocytes; assay: Assessment of in vivo efficacy: circulating lymphocytes after oral administration; parameters: species or system normotensive male Wistar rats; conditions: 6 h after oral administration of 3 mg/kg, male Wistar rats, compared to vehicle group; mean ± SEM
Method: The efficacy of the compounds of Formula (I) is assessed by measuring the circulating lymphocytes after oral administration of 3 to 30 mg/kg of a compound of Formula (I) to normotensive male Wistar rats. The animals are housed in climate-controlled conditions with a 12 h-light/dark cycle, and have free access to normal rat chow and drinking water. Blood is collected before and 3, 6 and 24 h after drug administration. Full blood is subjected to hematology using Advia Hematology system (Bayer Diagnostics, Zürich, Switzerland).
All data are presented as mean±SEM. Statistical analyses are performed by analysis of variance (ANOVA) using Statistica (StatSoft) and the Student-Newman-Keuls procedure for multiple comparisons. The null hypothesis is rejected when p≦0.05.

| SMILES | Lymphocyte counts |
| --- | --- |
| CCCc1cc(-c2nc(-c3cc(C)nc(C)c3)no2)cc(C)n1 [Example 6] | −68% ± 3%^ |

molecular target: recombinant human S1P1 receptor (Homo sapiens, UniProt P21453); assay: GTPγS assay to determine EC50 values; assay type: biochemical; conditions: membrane preparations of CHO cells expressing recombinant human S1P1 receptor; pH 7.4; read-out: EC50 (agonistic activity, 35S-GTPγS binding)
Method: GTPγS binding assays are performed in 96 well microtiter plates (Nunc, 442587) in a final volume of 200 μl, using membrane preparations of CHO cells expressing recombinant human S1P1 receptor. Assay conditions are 20 mM Hepes (Fluka, 54461), 100 mM NaCl (Fluka, 71378), 5 mM MgCl2 (Fluka, 63064), 0.1% BSA (Calbiochem, 126609), 1 μM GDP (Sigma, G-7127), 2.5% DMSO (Fluka, 41644), […] ^35S-GTPγS (Amersham Biosciences, SJ1320). The pH is 7.4. Test compounds are dissolved and diluted in 100% DMSO and pre-incubated at room temperature for 30 min in 150 μl of the above assay buffer, in the absence of ^35S-GTPγS. After addition of 50 μl of ^35S-GTPγS, the assay is incubated for 1 h at rt. The assay is terminated by transfer of the reaction mixture to a Multiscreen plate (Millipore, MAHFC1H60) using a cell harvester from Packard Biosciences, and the plates are washed with ice-cold 10 mM Na2HPO4/NaH2PO4 (70%/30%), dried, sealed at the bottom and, after addition of 25 μl MicroScint20 (Packard Biosciences, order#6013621), sealed on the top. Membrane-bound ^35S-GTPγS is measured with a TopCount from Packard Biosciences.
EC50 is the concentration of agonist inducing 50% of the maximal specific ^35S-GTPγS binding. Specific binding is determined by subtracting non-specific binding from maximal binding. Maximal binding is the amount of cpm bound to the Multiscreen plate in the presence of 10 μM of S1P. Non-specific binding is the amount of binding in the absence of an agonist in the assay.

recombinant human S1P1 receptor, sequence (P21453 whole entry): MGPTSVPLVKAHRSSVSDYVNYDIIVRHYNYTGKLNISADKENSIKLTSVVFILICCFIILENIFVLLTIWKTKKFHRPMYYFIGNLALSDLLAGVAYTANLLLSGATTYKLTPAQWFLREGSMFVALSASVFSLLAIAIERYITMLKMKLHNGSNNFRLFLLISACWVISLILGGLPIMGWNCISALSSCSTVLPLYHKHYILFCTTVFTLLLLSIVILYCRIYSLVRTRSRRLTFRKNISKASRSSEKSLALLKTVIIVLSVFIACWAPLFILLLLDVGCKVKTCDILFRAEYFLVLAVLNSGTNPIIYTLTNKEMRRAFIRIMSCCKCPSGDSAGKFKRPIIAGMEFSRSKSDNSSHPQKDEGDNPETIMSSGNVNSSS

| EC50 [nM] | SMILES |
| --- | --- |
| 1 | CCc1cc(-c2nc(-c3cc(C)nc(C)c3)no2)cc(CC(C)C)n1 [Example 61] |
| 1.4 | CCc1cc(-c2noc(-c3cc(CC)nc(CC(C)C)c3)n2)cc(C)n1 [Example 62] |
| 0.5 | CCC(CC)c1cc(-c2nc(-c3cc(C)nc(C)c3)no2)cc(C)n1 [Example 65] |
| 0.3 | Cc1cc(-c2noc(-c3cc(C)nc(C4CCCC4)c3)n2)cc(C)n1 [Example 66] |
| 2.1 | CCc1cc(-c2noc(-c3cc(OC)nc(C4CCCC4)c3)n2)cc(C)n1 [Example 117] |

More lines, now with the values behind:

| SMILES | EC50 [nM] |
| --- | --- |
| CCc1cc(-c2noc(-c3cc(C)nc(CC)c3)n2)cc(C)n1 [Example 2] | 5.2 |
| CCCc1cc(-c2nc(-c3cc(C)nc(C)c3)no2)cc(C)n1 [Example 6] | 2.4 |
| Cc1cc(-c2noc(-c3cc(C)nc(CC(C)C)c3)n2)cc(C)n1 [Example 8] | 0.4 |
| CCNc1cc(-c2nc(-c3cc(C)nc(CC)c3)no2)cc(C)n1 [Example 29] | 0.9 |
| Cc1cc(-c2nc(-c3cnc(NC(C)C)c(C)c3)no2)cc(CC(C)C)n1 [Example 39] | 6.1 |
| CCc1cc(-c2noc(-c3cc(C)nc(C(CC)CC)c3)n2)cc(C)n1 [Example 45] | 0.4 |

Source: patent US8598208B2, “Pyridine derivatives as S1P1/EDG1 receptor modulators” (Actelion Pharmaceuticals Ltd., priority 2007, dated 2013)
